According to patent US6613772B1, “Substituted 2-aryl-4-amino-chinazolines, method for the production and use thereof as medicaments” (Aventis Pharma Deutschland GmbH, priority 1997, dated 2003):

Experiments:
[1] = biological target: T1, soluble guanylate cyclase (sGC) (Bos taurus, UniProt P16068+P19687); assay: Activation of the soluble guanylate cyclase (cGMP enzyme immunoassay); type: biochemical; details: test substance 50 μM; sGC isolated from bovine lung; [cGMP] test substance/[cGMP] control (basal activity, solvent); 37° C., 15 to 20 minutes
T1 construct: The sGC employed had been isolated from bovine lung; from tissue; host or cells: bovine lung
T1 sequence (P19687 1-691): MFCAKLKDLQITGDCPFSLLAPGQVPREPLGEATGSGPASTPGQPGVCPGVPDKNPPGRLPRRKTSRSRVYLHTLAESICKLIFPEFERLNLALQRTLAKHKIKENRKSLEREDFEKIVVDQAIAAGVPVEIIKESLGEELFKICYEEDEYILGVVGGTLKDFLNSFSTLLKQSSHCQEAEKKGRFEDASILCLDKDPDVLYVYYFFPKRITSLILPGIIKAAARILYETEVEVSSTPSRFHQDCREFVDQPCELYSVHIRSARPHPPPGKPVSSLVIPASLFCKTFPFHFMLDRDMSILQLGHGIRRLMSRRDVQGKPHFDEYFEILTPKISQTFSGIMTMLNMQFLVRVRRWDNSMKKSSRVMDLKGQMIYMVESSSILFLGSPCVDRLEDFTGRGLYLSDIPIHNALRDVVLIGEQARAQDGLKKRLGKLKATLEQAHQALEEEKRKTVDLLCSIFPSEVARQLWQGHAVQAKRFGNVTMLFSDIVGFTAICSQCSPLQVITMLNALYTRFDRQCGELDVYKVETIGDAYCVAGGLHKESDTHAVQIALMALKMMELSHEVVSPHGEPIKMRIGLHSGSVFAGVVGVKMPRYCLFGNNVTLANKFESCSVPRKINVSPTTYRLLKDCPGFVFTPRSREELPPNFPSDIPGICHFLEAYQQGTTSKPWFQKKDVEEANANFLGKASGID
T1 sequence (P16068 1-619): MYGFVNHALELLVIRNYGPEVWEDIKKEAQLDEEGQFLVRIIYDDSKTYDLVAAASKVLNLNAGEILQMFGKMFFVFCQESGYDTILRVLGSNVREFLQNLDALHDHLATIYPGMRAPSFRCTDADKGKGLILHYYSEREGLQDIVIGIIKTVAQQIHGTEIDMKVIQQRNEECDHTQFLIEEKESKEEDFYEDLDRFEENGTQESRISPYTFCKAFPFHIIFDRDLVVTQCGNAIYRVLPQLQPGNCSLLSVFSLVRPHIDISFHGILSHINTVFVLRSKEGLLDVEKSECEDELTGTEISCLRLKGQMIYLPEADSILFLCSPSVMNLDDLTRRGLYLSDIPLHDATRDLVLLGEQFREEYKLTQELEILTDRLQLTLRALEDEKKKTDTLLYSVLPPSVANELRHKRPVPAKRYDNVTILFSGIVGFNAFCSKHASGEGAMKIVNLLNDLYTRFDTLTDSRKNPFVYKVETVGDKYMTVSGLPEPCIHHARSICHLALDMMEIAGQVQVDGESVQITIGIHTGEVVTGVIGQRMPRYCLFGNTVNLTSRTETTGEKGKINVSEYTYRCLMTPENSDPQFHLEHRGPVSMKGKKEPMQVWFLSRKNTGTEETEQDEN
Method: Activation of the Soluble Guanylate Cyclase
The activation of the soluble guanylate cyclase (sGC), which catalyzes the conversion of guanosine triphosphate (GTP) into cyclic guanosine monophosphate (cGMP) and pyrophosphate, by the compounds according to the invention was quantified with the aid of an enzyme immunoassay (EIA) from Amersham. For this, the test substances were first incubated with sGC in microtiter plates and then the amount of resulting cGMP was determined. The sGC employed had been isolated from bovine lung (see Methods in Enzymology, Volume 195, p. 377). The test solutions (100 μl per well) contained 50 mM triethanolamine (TEA) buffer (pH 7.5), 3 mM MgCl2, 3 mM reduced glutathione (GSH), 0.1 mM GTP, 1 mM 3-isobutyl-1-methylxanthine (IBMX), suitably diluted enzyme solution and the test substance or, in the case of the control experiments, solvent. The test substances were dissolved in dimethyl sulfoxide (DMSO) and the solution was diluted with DMSO/water such that the final concentration of test substance in the test solution was 50 μM. The DMSO concentration in the test solution was 5% (v/v). The reaction was started by addition of the sGC. The reaction mix was incubated at 37° C. for 15 to 20 minutes and then stopped by ice-cooling and addition of the stop reagent (50 mM EDTA, pH 8.0). An aliquot of 50 μl was taken and employed for the determination of the cGMP content using the acetylation protocol of the Amersham cGMP EIA kit. The absorption of the samples was measured at 450 nm (reference wavelength 620 nm) in a microtiter plate reader. The cGMP concentration was determined by means of a calibration curve which was obtained under the same experimental conditions. The activation of the sGC by a test substance is indicated as n-fold stimulation of the basal enzyme activity which was found in the control experiments (with solvent instead of test substance calculated according to the formula
n-fold stimulation=[cGMP]test substance/[cGMP]control).

| Compound | n-fold Stimulation [1] [n-fold] | melting point [°C] |
| --- | --- | --- |
| COc1cc2nc(-c3ccc(C)cc3)nc(NCCO)c2cc1OC [Example 37, 2-(4-Methylphenyl)-4-(2-hydroxyethylamino)-6,7-dimethoxyquinazoline] | 4 | 217 |
| COc1cc2nc(-c3ccc(C)cc3)nc(NCc3cccnc3)c2cc1OC [Example 38, 2-(4-Methylphenyl)-4-((3-pyridylmethyl)amino)-6,7-dimethoxyquinazoline] | 7 | 239 |
| COc1cc2nc(-c3ccc(C)cc3)nc(N3CCN(C)CC3)c2cc1OC [Example 39, 2-(4-Methylphenyl)-4-(4-methylpiperazino)-6,7-dimethoxyquinazoline] | 3 | 166 |
| COc1cc2nc(-c3ccc(C(F)(F)F)cc3)nc(NCCO)c2cc1OC [Example 42, 2-(4-Trifluoromethylphenyl)-4-(2-hydroxyethylamino)-6,7-dimethoxyquinazoline] | 3 | 210 |
| COc1cc2nc(-c3ccc(C(F)(F)F)cc3)nc(NCc3cccnc3)c2cc1OC [Example 44, 2-(4-Trifluoromethylphenyl)-4-((3-pyridylmethyl)amino)-6,7-dimethoxyquinazoline] | 4 | 238 |
| COc1cc2c(N3CCC(C(N)=O)CC3)nc(-c3ccc(Cl)cc3)nc2c(OC)c1OC [Example 67, 2-(4-Chlorophenyl)-4-(4-aminocarbonylpiperidino)-6,7,8-trimethoxyquinazoline] | 7 | 215 |
| COc1cc2nc(-c3ccc(C)cc3)nc(N3CCN(c4ccccn4)CC3)c2cc1OC [Example 79, 2-(4-Methylphenyl)-4-(4-(2-pyridyl)piperazino)-6,7-dimethoxyquinazoline] | 6 | 191 |
| COc1cc2nc(-c3ccc(Cl)cc3)nc(NC3CCCC3)c2cc1OC [Example 92, 2-(4-Chlorophenyl)-4-cyclopentylamino-6,7-dimethoxyquinazoline] | 6 | 231 |
| COc1cc2nc(-c3ccc(Cl)cc3)nc(N[C@H]3CC[C@H](O)CC3)c2cc1OC [Example 93, 2-(4-Chlorophenyl)-4-(trans-4-hydroxycyclohexylamino)-6,7-dimethoxyquinazoline] | 14 | 261 |
| COc1cc2c(N[C@H]3CC[C@H](O)CC3)nc(-c3ccc(Cl)cc3)nc2c(OC)c1OC [Example 94, 2-(4-Chlorophenyl)-4-(trans-4-hydroxycyclohexylamino)-6,7,8-trimethoxyquinazoline] | 13 | 199 |
| COc1cc2nc(-c3ccc(C)cc3)nc(N[C@H]3CC[C@H](O)CC3)c2cc1OC [Example 96, 2-(4-Methylphenyl)-4-(trans-4-hydroxycyclohexylamino)-6,7-dimethoxyquinazoline] | 16 | 243 |
| COc1cc2nc(-c3ccc(C)cc3)nc(NC3CCCC3)c2cc1OC [Example 98, 2-(4-Methylphenyl)-4-cyclopentylamino-6,7-dimethoxyquinazoline] | 8 | 101 |
